In patent US10906929B2, “Phosphoramidate nucleoside derivatives as anticancer agents” (NuCana plc, priority 2016, dated 2021):

Experiments:
K562 = assay: In vitro cytotoxicity, MTS assay; assay type: cell-based; details: Homo sapiens, 72 h, read-out: Inhibitory concentration (IC50) K562
Experimental: (§1) Cladribine phosphoramidate derivatives were evaluated against six leukaemic cell lines (KG1, U937, K562, NB4R2, NB4 and HL-60) in vitro. Inhibitory concentration (IC50) at which 50% of the cells were no longer viable (calculated using MTS assay) was determined. Cells were treated with Cladribine and its 3′-phosphoramidate derivatives at concentrations between 100 μM and 0.02 μM by serial dilutions and incubated for 72 h at 37° C., 5% CO2 in a final volume of 90 μL. Twenty microliters of MTS reagent (Promega UK Ltd, Southampton, Hants) was added to the tumour cell cultures and reaction incubated for a further 4 h at 37° C., 5% CO2. The absorbance of the reaction after this time was read by spectrophotometry at 490 nm and the percentage of viable cells calculated relative to untreated control cells in the same assay.

NB4R2 = assay: In vitro cytotoxicity, MTS assay; assay type: cell-based; details: 72 h, read-out: Inhibitory concentration (IC50) NB4R2
Experimental: as §1

KG1 = assay: In vitro cytotoxicity, MTS assay; assay type: cell-based; details: Homo sapiens, KG-1, 72 h, read-out: Inhibitory concentration (IC50) KG1
Experimental: as §1

NB4 = assay: In vitro cytotoxicity, MTS assay; assay type: cell-based; details: Homo sapiens, NB-4, 72 h, read-out: Inhibitory concentration (IC50) NB4
Experimental: as §1

HL-60 = assay: In vitro cytotoxicity, MTS assay; assay type: cell-based; details: Homo sapiens, 72 h, read-out: Inhibitory concentration (IC50) HL-60
Experimental: as §1

U937 = assay: In vitro cytotoxicity, MTS assay; assay type: cell-based; details: Homo sapiens, U-937, 72 h, read-out: Inhibitory concentration (IC50) U937
Experimental: as §1

[1] = tested on: leukaemic stem cell compartment (Lin-/CD34+/CD38-/CD123+) within the KG1a cell line; assay: Immunophenotypic identification of the leukaemic stem cell compartment; assay type: cell-based; details: for Stem cell %: 72 h, LSC phenotype as percentage of all viable cells left, Control: 4%
Experimental: A further comparative analysis of the toxicity of compounds in the KG1a cell line over an extended dose range was carried out, and the relative effect assessed of the compounds on the leukaemic stem cell compartment within the KG1a cell line, across the entire dose range. Thus, experimental tests were performed on certain compounds of the present invention to assess their ability to target cancer stem cells in a leukaemic cell line. The acute myeloid leukaemia (AML) cell line, KG1a, was employed to assess the relative effect of compounds on the stem cell compartment. The KG1a cell line was selected because it manifests a minor stem cell-like compartment with a distinct immunophenotype (Lin^−/CD34^+/CD38^−/CD123^+).
(§2) Cells of the KG1a cell line were maintained in RPMI medium (Invitrogen, Paisley, UK) supplemented with 100 units/ml penicillin, 100 μg/ml streptomycin and 20% foetal calf serum. Cells were subsequently aliquoted (10^5 cells/100 μl) into 96-well plates and were incubated at 37° C. in a humidified 5% carbon dioxide atmosphere for 72 h in the presence of nucleoside analogues and their respective phosphoramidates at concentrations that were experimentally determined for each series of compounds. In addition, control cultures were carried out to which no drug was added. Cells were subsequently harvested by centrifugation and were analyzed by flow cytometry using the Annexin V assay.
KG1a cells were cultured for 72 h in the presence of a wide range of concentrations of each compound assayed. Cells were then harvested and labelled with a cocktail of anti-lineage antibodies (PE-cy7), anti-CD34 (FITC), anti-CD38 (PE) and anti-CD123 (PERCP cy5). The sub-population expressing a leukaemic stem cell (LSC) phenotype were subsequently identified and were expressed as a percentage of all viable cells left in the culture. […]

KG1a cell line = assay: Annexin V/propidium iodide apoptosis assay; assay type: cell-based; details: 72 h, dose required to kill 50% of the cells
Experimental: as §2
Measurement of in vitro apoptosis. Cultured cells were harvested by centrifugation and then resuspended in 195 μl of calcium-rich buffer. Subsequently, 5 μl of Annexin V (Caltag Medsystems, Botolph Claydon, UK) was added to the cell suspension and cells were incubated in the dark for 10 mins prior to washing. Cells were finally resuspended in 190 μl of calcium-rich buffer together with 10 μl of propidium iodide. Apoptosis was assessed by dual-colour immunofluorescent flow cytometry as described previously. Subsequently LD50 values (the dose required to kill 50% of the cells in a culture) were calculated for each nucleoside analogue and phosphoramidate.
The data obtained in these experiments were evaluated using one way ANOVA. All data was confirmed as Gaussian or a Gaussian approximation using the omnibus K2 test. LD50 values were calculated from the non-linear regression and line of best-fit analysis of the sigmoidal dose-response curves. All statistical analyses were performed using Graphpad Prism 6.0 software (Graphpad Software Inc., San Diego, Calif.).

L1210 = assay: Cytostatic activity, cell counting (Coulter counter); assay type: cell-based; details: Mus musculus, L1210, 48 h, read-out: IC50 L1210
From the text: (§3) Tumor cell cultures were infected with M. hyorhinis (ATCC 17981) and after two or more passages (to avoid bias by the initial inoculum) successful infection was confirmed using the MycoAlert™ mycoplasma detection kit (Lonza, Basel, Switzerland). Although this assay is only semi-quantitative, a maximal infection was observed 3 to 4 days after subcultivation of the mycoplasma-exposed cells. Chronically infected tumor cell lines are further referred to as Cell line.Hyor. All tumor cell cultures were maintained in Dulbecco's modified Eagle's medium (DMEM) (Invitrogen) supplemented with 10% fetal bovine serum (Biochrom AG, Berlin, Germany), 10 mm HEPES, and 1 mm sodium pyruvate (Invitrogen). Cells were grown at 37° C. in a humidified incubator with a gas phase containing 5% CO2.
(§4) The cytostatic activity of the test compounds was examined in mycoplasma-infected and uninfected cancer cell lines. When assaying the effect of M. hyorhinis infection, monolayer MCF7 and MCF7.Hyor cells were seeded in 48-well microtiter plates (Nunc™, Roskilde, Denmark) at 10,000 cells/well (Corning Inc., Corning, N.Y.) […]. After 24 h, the cells were exposed to different concentrations of test compound and allowed to proliferate for 72 h (to ensure sufficient cell proliferation and mycoplasma growth) after which the cells were trypsinized and counted using a Coulter counter (Analis, Suarlée, Belgium). Suspension cells (L1210, L1210.Hyor, FM3A, and FM3A.Hyor) were seeded in 96-well microtiter plates (Nunc) at 60,000 cells/well in the presence of different concentrations of test compound. The cells were allowed to proliferate for 48 h and then counted using a Coulter counter. The 50% inhibitory concentration (IC50) was defined as the compound concentration required to reduce cell proliferation by 50%.

[2] = tested on: RL Non-Hodgkin's lymphoma; assay: In vitro viability assay, CellTiterGlo; assay type: cell-based; details: 72 h
Experimental: (§5) In vitro viability assay was performed to assess the effects of compounds on cell viability in selected cell lines over 72 h using the CellTiterGlo (CTG, Promega-G7573) assay. The tests were performed in duplicates with treatment of compounds at 9 points, 3.16 folds titration in 96 well plates over ˜72 h. The compound starting concentrations were […]. Cell viability assay using CellTiterGlo in 96-well plate were performed. Compounds were dissolved to 40 mM with thawed 100% DMSO. Compounds were serially diluted at 3.16-fold in thawed DMSO, and warmed to 37° C. before being dissolved in media (2 μl+200 μl). After compounds were dissolved in media, media containing compounds were warmed to 37° C. in incubator and then compounds in media were added to cell plates (50 μl+50 μl) in duplicates. The compounds' final concentrations were from 198 μM to 19.9 nM. Solubility of all compounds was checked and recorded again, then the plates were transferred to CO2 tissue culture incubator immediately and incubated for 3 days. DMSO final concentration is 0.5%.

[3] = tested on: KG-1 Acute myelogenous leukaemia; assay: In vitro viability assay, CellTiterGlo; assay type: cell-based
Experimental: as §5

[4] = tested on: HL-60 Promyelocytic leukaemia; assay: In vitro viability assay, CellTiterGlo; assay type: cell-based
Experimental: as §5

[5] = tested on: Z-138 Mantle cell lymphoma; assay: In vitro viability assay, CellTiterGlo; assay type: cell-based
Experimental: as §5

[6] = tested on: HEL92.1.7 Erythroleukaemia; assay: In vitro viability assay, CellTiterGlo; assay type: cell-based
Experimental: as §5

[7] = tested on: MCF-7 Mammary epithelial adenocarcinoma; assay: In vitro viability assay, CellTiterGlo; assay type: cell-based, human
Experimental: as §5

[8] = tested on: L1210 cells infected with Mycoplasma hyorhinis (HYOR); assay: Cytostatic activity in mycoplasma-infected cells; assay type: cell-based, mouse
From the text: as §3, §4

MCF7 = assay: Cytostatic activity, cell counting (Coulter counter); assay type: cell-based; details: Homo sapiens, MCF7, 72 h, read-out: IC50 MCF7
From the text: as §3, §4

[9] = tested on: MCF7 cells infected with Mycoplasma hyorhnis (HYOR); assay: Cytostatic activity in mycoplasma-infected cells; assay type: cell-based, human; details: for IC50: Homo sapiens, MCF7, 72 h, read-out: IC50 MCF7/HYOR; for Loss of potency: MCF7/HYOR versus MCF7
From the text: as §3, §4

| SMILES | IC50 (K562) | IC50 (NB4R2) | IC50 (KG1) | IC50 (NB4) | IC50 (HL-60) | IC50 (U937) | stem cell selectivity [1] | Stem cell % [1] | LD50 (KG1a cell line) | IC50 (MCF7) | IC50 [9] | Loss of potency [9] | also measured |
| --- | --- | --- | --- | --- | --- | --- | --- | --- | --- | --- | --- | --- | --- |
| C[C@H](NP(=O)(Oc1cccc2ccccc12)OC1C[C@H](n2cnc3c(N)nc(Cl)nc32)O[C@@H]1CO)C(=O)OCc1ccccc1 (some centres unmarked) [Compound 18] | 5140 nM | 1290 nM | 310 nM | 70 nM | 390 nM | 10 nM | exhibited stem cell selectivity | 4% | 0.27 μm | – | – | – | targeting of LSCs when compared to cladribine [1]: showed preferential targeting of LSCs |
| C[C@H](NP(=O)(Oc1cccc2ccccc12)OC1C[C@H](n2cnc3c(N)nc(Cl)nc32)O[C@@H]1CO)C(=O)OCC(C)(C)C (stereo partly drawn) [Compound 6, 2-Chloro-2′-deoxyadenosine-3′-[1-naphthyl-(2,2-dimethylpropoxy-L-alaninyl)]phosphate] | – | – | – | 1000 nM | 300 nM | – | – | – | – | – | – | – | IC50 (L1210): 1000 nM; Top Inhibition (%) ([2]; CellTiterGlo): 98.6%; EC50 ([2]; Homo sapiens, read-out: EC50 (μM) Ab): 0.29 µM; EC50 ([3]; Homo sapiens, KG-1, 72 h, read-out: EC50 (μM) Ab): 1.2 µM; Top Inhibition (%) ([3]; KG-1, CellTiterGlo, 72 h): 98.6%; Top Inhibition (%) ([4]; HL-60, CellTiterGlo, 72 h): 96%; EC50 ([4]; Homo sapiens, HL-60, 72 h, read-out: EC50 (μM) Ab): 0.23 µM; EC50 ([5]; Homo sapiens, Z-138, 72 h, read-out: EC50 (μM) Ab): 1.5 µM; Top Inhibition (%) ([5]; Z-138, CellTiterGlo, 72 h): 101%; Top Inhibition (%) ([6]; HEL92.1.7, CellTiterGlo, 72 h): 98.6%; EC50 ([6]; Homo sapiens, HEL 92.1.7, 72 h, read-out: EC50 (μM) Ab): 0.07 µM; EC50 ([7]; Homo sapiens, MCF7, 72 h, read-out: EC50 (μM) Ab): 6.8 µM; Top Inhibition (%) ([7]; MCF-7, CellTiterGlo, 72 h): 102%; Loss of potency ([8]; L1210/HYOR versus L1210): 4-fold; IC50 ([8]; Mus musculus, L1210, 48 h, read-out: IC50 L1210/HYOR): 4000 nM |
| C[C@H](NP(=O)(OC[C@H]1O[C@@H](n2cnc3c(N)nc(Cl)nc32)CC1O)Oc1ccccc1)C(=O)OCc1ccccc1 (some centres unmarked) [Y, reference compound] | 8050 nM | 630 nM | 670 nM | 230 nM | 1750 nM | 80 nM | – | 2% | 1.7 μm | 2100 nM | 33000 nM | 16-fold | – |
| C[C@H](NP(=O)(Oc1ccccc1)OC1C[C@H](n2cnc3c(N)nc(Cl)nc32)O[C@@H]1CO)C(=O)OCc1ccccc1 (some centres unmarked) [Compound 19] | > 10000 nM | 110 nM | 380 nM | 240 nM | 100 nM | 30 nM | exhibited stem cell selectivity | 3.1% | 0.83 μm | 5200 nM | 26000 nM | 5-fold | – |
